According to ChEMBL document CHEMBL3886897, “Macrocyclic indole derivatives useful as hepatitis C virus inhibitors” (2016):

Tests used:
[1] = target: RNA-directed RNA polymerase (Hepacivirus hominis) (UniProt O39930)
[2] = target: RNA-directed RNA polymerase (Hepacivirus hominis) (UniProt O39930); remark: listed apart in the source
[3] = target: RNA-directed RNA polymerase (Hepacivirus hominis) (UniProt O39930); remark: listed apart in the source
[4] = target: RNA-directed RNA polymerase (Hepacivirus hominis) (UniProt O39930); remark: listed apart in the source
[5] = target: RNA-directed RNA polymerase (Hepacivirus hominis) (UniProt O39930); remark: listed apart in the source
[6] = target: RNA-directed RNA polymerase (Hepacivirus hominis) (UniProt O39930); remark: listed apart in the source
[7] = target: RNA-directed RNA polymerase (Hepacivirus hominis) (UniProt O39930); remark: listed apart in the source
[8] = target: RNA-directed RNA polymerase (Hepacivirus hominis) (UniProt O39930); remark: listed apart in the source
[9] = target: RNA-directed RNA polymerase (Hepacivirus hominis) (UniProt O39930); remark: listed apart in the source
[10] = target: RNA-directed RNA polymerase (Hepacivirus hominis) (UniProt O39930); remark: listed apart in the source

RNA-directed RNA polymerase (Hepacivirus hominis), sequence (O39930 1-591): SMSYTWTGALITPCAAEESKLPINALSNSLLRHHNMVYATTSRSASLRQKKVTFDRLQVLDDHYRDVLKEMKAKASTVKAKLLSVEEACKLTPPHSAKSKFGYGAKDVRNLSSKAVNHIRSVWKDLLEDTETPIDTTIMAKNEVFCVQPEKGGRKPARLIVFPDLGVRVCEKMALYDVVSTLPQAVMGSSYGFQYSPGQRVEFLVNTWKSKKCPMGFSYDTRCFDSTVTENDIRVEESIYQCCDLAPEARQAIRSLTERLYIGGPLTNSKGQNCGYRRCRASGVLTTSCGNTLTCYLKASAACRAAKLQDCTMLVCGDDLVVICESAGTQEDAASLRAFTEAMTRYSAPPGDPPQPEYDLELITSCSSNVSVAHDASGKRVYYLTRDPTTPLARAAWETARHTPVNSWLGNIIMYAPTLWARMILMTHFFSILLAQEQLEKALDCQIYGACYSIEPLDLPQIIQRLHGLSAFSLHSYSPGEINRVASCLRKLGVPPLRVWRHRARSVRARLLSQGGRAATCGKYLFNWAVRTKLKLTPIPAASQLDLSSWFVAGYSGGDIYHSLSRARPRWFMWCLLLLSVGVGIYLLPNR

SMILES	k off [1] [s⁻¹]	further results
COc1ccc2c(c1)C(C)=C1Cn3c-2c(C2CCCCC2)c2ccc(cc23)C(=O)NS(=O)(=O)N(C)CCOCCN(C)C1=O	3.6e-05	–
CN1CCCCN(C)S(=O)(=O)NC(=O)c2ccc3c(C4CCCCC4)c4n(c3c2)CC(=Cc2ccc(Cl)cc2-4)C1=O	0.0037	–
COc1ccc2c(c1)C=C1Cn3c-2c(C2CCCCC2)c2ccc(cc23)C(=O)NS(=O)(=O)N(C(C)C)CCCCN(C)C1=O	6.6e-05	–
COc1ccc2c(c1)C=C1Cn3c-2c(C2CCCCC2)c2ccc(cc23)C(=O)NS(=O)(=O)NCCCCN(C)C1=O	0.00031	–
COc1ccc2c(c1)C=C1Cn3c-2c(C2CCCCC2)c2ccc(cc23)C(=O)NS(=O)(=O)N(C)CCCCN(C)C1=O	4.8e-05	–
COc1ccc2c(c1)C=C1Cn3c-2c(C2CCCCC2)c2ccc(cc23)C(=O)NS(=O)(=O)N(C)CCOCCN(C)C1=O	9e-05	k off [2]: 0.022 s⁻¹; k off [3]: 0.00013 s⁻¹; k off [4]: 0.00015 s⁻¹; k off [5]: 0.00097 s⁻¹; k off [6]: 0.00084 s⁻¹; k off [7]: 0.00015 s⁻¹; k off [8]: 0.0001 s⁻¹; k off [9]: 0.022 s⁻¹; k off [10]: 7.6e-05 s⁻¹
COc1ccc2c(c1)C=C1Cn3c-2c(C2CCCCC2)c2ccc(cc23)C(=O)NS(=O)(=O)N(C)CCCCNC1=O	4.1e-05	–
CN1CCCCCNC(=O)C2=Cc3ccc(Cl)cc3-c3c(C4CCCCC4)c4ccc(cc4n3C2)C(=O)NS1(=O)=O	0.0038	–
COc1ccc2c(c1)C(C)=C1Cn3c-2c(C2CCCCC2)c2ccc(cc23)C(=O)NS(=O)(=O)N(C)CCCCN(C)C1=O	0.00016	–
